From patent publication US20250213575A1, “8-HETEROCYCLIC-3-(PHENYLSULFONYL)-[1,2,3]TRIAZOLO[1,5A]QUINAZOLIN-5(4H)-ONE DERIVATIVES AS ANTI-BACTERIALS” (priority 2022, published 2025)
pIC50: −log10 of the molar value. Marks after values point to notes of the source that are not given here.

Target: AgrA (Staphylococcus aureus, UniProt P0A0I7)
Test: cell-based
Design: species or system S. aureus USA300 strain UAMS-1625
Details: for Ratio IC50 (in presence of HSA)/IC50 (in absence of HSA): 40 mg/mL HSA vs without HSA; for Ratio (cells marked *): calculated based on activity in presence of 50% of human serum
[1] = LB medium supplemented with 40 mg/mL human serum albumin
[2] = IC50 at 40 mg/mL HSA, LB medium supplemented with 40 mg/mL human serum albumin
[3] = IC50 without HSA, LB medium, without HSA
[4] = concentration inhibiting the expression of lacZ, in the absence of HSA or HS
[5] = IC50 at 40 mg/mL HSA (cells marked *), marked *: activity in presence of 50% of human serum, not determined in 40 mg/mL HSA

Chain of AgrA (P0A0I7 whole entry): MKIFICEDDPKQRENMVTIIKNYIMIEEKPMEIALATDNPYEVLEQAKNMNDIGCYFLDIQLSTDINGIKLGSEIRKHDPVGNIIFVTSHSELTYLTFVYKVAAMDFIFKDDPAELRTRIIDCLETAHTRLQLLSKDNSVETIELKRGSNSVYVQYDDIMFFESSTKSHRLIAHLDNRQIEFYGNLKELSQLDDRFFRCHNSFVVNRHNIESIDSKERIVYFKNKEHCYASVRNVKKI

Q: How did the “Ratio IC50 (in presence of HSA)/IC50 (in absence of HSA)” value (“Ratio IC50 (in presence of HSA)/IC50” below) turn out when “3-(2,4-dimethylbenzenesulfonyl)-8-(4-methanesulfonylpiperazin-1-yl)-4H,5H-[1,2,3]triazolo[1,5-a]quinazolin-5-one [Compound 61]” was run?
A: The value was “++ (ratio ≤ 125)”.

Q: And the “IC50 at 40 mg/mL HSA” value [1]?
A: Its value is “++ (10 μg/mL < IC50 ≤ 50 μg/mL)”.

Q: What about the “IC50 without HSA” value (LB medium, without HSA) of the same compound?
A: The value was “+++ (IC50 ≤ 1 μg/mL)”.

Q: Which “Ratio IC50 (in presence of HSA)/IC50” value does the source give for “3-(2,4-dimethylbenzenesulfonyl)-8-(piperazin-1-yl)-4H,5H-[1,2,3]triazolo[1,5-a]quinazolin-5-one [Compound 23]” here?
A: Its value is “+++ (ratio ≤ 25)”.

Q: What about the “IC50 at 40 mg/mL HSA” value [1] of the same compound?
A: Its value is “++ (10 μg/mL < IC50 ≤ 50 μg/mL)”.

Q: What about the “IC50 without HSA” value (LB medium, without HSA) of the same compound?
A: Its value is “+++ (IC50 ≤ 1 μg/mL)”.

Q: For “3-(2,4-dimethylbenzenesulfonyl)-8-{9-methyl-2,9-diazaspiro[5.5]undecan-2-yl}-1H,5H-[1,2,3]triazolo[1,5-a]quinazolin-5-one [Compound 5]”, which “Ratio IC50 (in presence of HSA)/IC50” value is on record?
A: The value was “+++ (ratio ≤ 25)”.

Q: And the “IC50 at 40 mg/mL HSA” value [1]?
A: The value was “++ (10 μg/mL < IC50 ≤ 50 μg/mL)”.

Q: What about the “IC50 without HSA” value (LB medium, without HSA) of the same compound?
A: The value was “+++ (IC50 ≤ 1 μg/mL)”.

Q: Which “Ratio IC50 (in presence of HSA)/IC50” value does the source give for “4-[3-(2,4-dimethylbenzenesulfonyl)-5-oxo-4H,5H-[1,2,3]triazolo[1,5-a]quinazolin-8-yl]piperazine-1-sulfonamide [Compound 62]” here?
A: The value was “++ (ratio ≤ 125)”.

Q: What about the “IC50 at 40 mg/mL HSA” value [1] of the same compound?
A: Its value is “++ (10 μg/mL < IC50 ≤ 50 μg/mL)”.

Q: And the “IC50 without HSA” value (LB medium, without HSA)?
A: The value was “+++ (IC50 ≤ 1 μg/mL)”.

Q: For `Cc1ccc(S(=O)(=O)c2nnn3c2[nH]c(=O)c2ccc(N4C[C@H](C)NC[C@H]4C)cc23)c(C)c1` (racemic) [Compound 28, rac-3-(2,4-dimethylbenzenesulfonyl)-8-[(2R,5S)-2,5-dimethylpiperazin-1-yl]-4H,5H-[1,2,3]triazolo[1,5-a]quinazolin-5-one], which “Ratio IC50 (in presence of HSA)/IC50” value is on record?
A: Its value is “+++ (ratio ≤ 25)”.

Q: And the pIC50 [2]?
A: Its pIC50 is greater than 4.67.

Q: And the pIC50 [3]?
A: The pIC50 was greater than 5.67.

Q: For `Cc1ccc(S(=O)(=O)c2nnn3c2[nH]c(=O)c2ccc(N4CCC4)cc23)c(C)c1` [45 (WO 2020/109350), reference compound], which “Ratio IC50 (in presence of HSA)/IC50” value is on record?
A: The value was “+ (ratio > 125)”.

Q: What about the pIC50 [2] of the same compound?
A: The pIC50 was less than 3.91.

Q: And the pIC50 [3]?
A: Its pIC50 is greater than 5.61.

Q: And the pIC50 [4]?
A: Its pIC50 is greater than 5.61.

Q: What about the “activity in the presence of HSA (or HS), inactive at highest concentration tested” value (in the presence of HSA (or HS)) of the same compound?
A: The value was greater than 128 µg/mL.

Q: How did the pIC50 [5] turn out when `Cc1ccc(S(=O)(=O)c2nnn3c2[nH]c(=O)c2cc(O)ccc23)c(C)c1` [46 (WO 2020/109350), reference compound] was run?
A: Its pIC50 is less than 3.87.

Q: And the pIC50 [3]?
A: The pIC50 was greater than 5.57.

Q: What about the “Ratio (cells marked *)” value of the same compound?
A: Its value is “+* (ratio > 125)”.

Q: What about the pIC50 [4] of the same compound?
A: Its pIC50 is greater than 5.57.

Q: What does the source list for `COCCOc1cc2c(cc1O)c(=O)[nH]c1c(S(=O)(=O)c3ccc(C)cc3C)nnn12` [58 (WO 2020/109350), reference compound]?
A: pIC50 [5]: < 3.95; pIC50 [3]: > 5.65; Ratio (cells marked *): +* (ratio > 125); pIC50 [4]: > 5.65

Q: With `Cc1ccc(S(=O)(=O)c2nnn3c2[nH]c(=O)c2cc(O)c(N4CCN(C)CC4)cc23)c(C)c1` [Compound 1, 3-(2,4-dimethylbenzenesulfonyl)-7-hydroxy-8-(4-methylpiperazin-1-yl)-4H,5H-[1,2,3]triazolo[1,5-a]quinazolin-5-one] as the compound, how does the “Ratio IC50 (in presence of HSA)/IC50” value read?
A: Its value is “+++ (ratio ≤ 25)”.

Q: And the pIC50 [2]?
A: The pIC50 was greater than 4.67.

Q: What about the pIC50 [3] of the same compound?
A: Its pIC50 is greater than 5.67.

Q: Which “Ratio IC50 (in presence of HSA)/IC50” value does the source give for `Cc1ccc(S(=O)(=O)c2nnn3c2[nH]c(=O)c2cc(O)c(N4CC5(CN(C)C5)C4)cc23)c(C)c1` [Compound 2, 3-(2,4-dimethylbenzenesulfonyl)-7-hydroxy-8-{6-methyl-2,6-diazaspiro[3.3]heptan-2-yl}-4H,5H-[1,2,3]triazolo[1,5-a]quinazolin-5-one] here?
A: The value was “+++ (ratio ≤ 25)”.

Q: What about the pIC50 [2] of the same compound?
A: The pIC50 was greater than 4.68.

Q: What about the pIC50 [3] of the same compound?
A: The pIC50 was greater than 5.68.

Q: Which results are given for `Cc1ccc(S(=O)(=O)c2n[nH]n3c2nc(=O)c2ccc(N4CCC5(CCN(C)CC5)C4)cc23)c(C)c1` [Compound 3, 3-(2,4-dimethylbenzenesulfonyl)-8-{8-methyl-2,8-diazaspiro[4.5]decan-2-yl}-1H,5H-[1,2,3]triazolo[1,5-a]quinazolin-5-one]?
A: Ratio IC50 (in presence of HSA)/IC50 (in absence of HSA): +++ (ratio ≤ 25); pIC50 [2]: > 4.70; pIC50 [3]: > 5.70

Q: How did the “Ratio IC50 (in presence of HSA)/IC50” value turn out when `Cc1ccc(S(=O)(=O)c2n[nH]n3c2nc(=O)c2ccc(N4CCC5(CCCN(C)C5)CC4)cc23)c(C)c1` [Compound 4, 3-(2,4-dimethylbenzenesulfonyl)-8-{2-methyl-2,9-diazaspiro[5.5]undecan-9-yl}-1H,5H-[1,2,3]triazolo[1,5-a]quinazolin-5-one] was run?
A: Its value is “+++ (ratio ≤ 25)”.

Q: What about the pIC50 [2] of the same compound?
A: Its pIC50 is 4.02 to 4.72.

Q: What about the pIC50 [3] of the same compound?
A: The pIC50 was 5.02 to 5.72.

Q: `Cc1ccc(S(=O)(=O)c2n[nH]n3c2nc(=O)c2ccc(N4CCC5(CCN(C)CC5)CC4)cc23)c(C)c1` [Compound 6, 3-(2,4-dimethylbenzenesulfonyl)-8-{9-methyl-3,9-diazaspiro[5.5]undecan-3-yl}-1H,5H-[1,2,3]triazolo[1,5-a]quinazolin-5-one] was tested. Which “Ratio IC50 (in presence of HSA)/IC50” value did it give?
A: The value was “+++ (ratio ≤ 25)”.

Q: What about the pIC50 [2] of the same compound?
A: Its pIC50 is 4.02 to 4.72.

Q: And the pIC50 [3]?
A: Its pIC50 is 5.02 to 5.72.

Q: With `Cc1ccc(S(=O)(=O)c2nnn3c2[nH]c(=O)c2ccc(N4CCC5(CNCCO5)C4)cc23)c(C)c1` (stereo not shown) [Compound 7, 3-(2,4-dimethylbenzenesulfonyl)-8-{6-oxa-2,9-diazaspiro[4.5]decan-2-yl}-4H,5H-[1,2,3]triazolo[1,5-a]quinazolin-5-one] as the compound, how does the “Ratio IC50 (in presence of HSA)/IC50” value read?
A: Its value is “+++ (ratio ≤ 25)”.

Q: What about the pIC50 [2] of the same compound?
A: The pIC50 was greater than 4.69.

Q: What about the pIC50 [3] of the same compound?
A: Its pIC50 is greater than 5.69.

Q: Which results are given for `Cc1ccc(S(=O)(=O)c2nnn3c2[nH]c(=O)c2ccc(N4CCC5(CN(C)CCO5)C4)cc23)c(C)c1` (stereo not shown) [Compound 8, 3-(2,4-dimethylbenzenesulfonyl)-8-{9-methyl-6-oxa-2,9-diazaspiro[4.5]decan-2-yl}-4H,5H-[1,2,3]triazolo[1,5-a]quinazolin-5-one]?
A: Ratio IC50 (in presence of HSA)/IC50 (in absence of HSA): +++ (ratio ≤ 25); pIC50 [2]: 4.01 to 4.71; pIC50 [3]: > 5.71

Q: How did the “Ratio IC50 (in presence of HSA)/IC50” value turn out when `Cc1ccc(S(=O)(=O)c2nnn3c2[nH]c(=O)c2ccc(N4CCOC5(CNC5)C4)cc23)c(C)c1` [Compound 9, 3-(2,4-dimethylbenzenesulfonyl)-8-{5-oxa-2,8-diazaspiro[3.5]nonan-8-yl}-4H,5H-[1,2,3]triazolo[1,5-a]quinazolin-5-one] was run?
A: The value was “+++ (ratio ≤ 25)”.

Q: And the pIC50 [2]?
A: The pIC50 was 3.98 to 4.68.

Q: What about the pIC50 [3] of the same compound?
A: The pIC50 was 4.98 to 5.68.

Q: Which results are given for `Cc1ccc(S(=O)(=O)c2nnn3c2[nH]c(=O)c2ccc(N4CCOC5(CN(C)C5)C4)cc23)c(C)c1` [Compound 10, 3-(2,4-dimethylbenzenesulfonyl)-8-{2-methyl-5-oxa-2,8-diazaspiro[3.5]nonan-8-yl}-4H,5H-[1,2,3]triazolo[1,5-a]quinazolin-5-one]?
A: Ratio IC50 (in presence of HSA)/IC50 (in absence of HSA): +++ (ratio ≤ 25); pIC50 [2]: 4.00 to 4.69; pIC50 [3]: 5.00 to 5.69

Q: `Cc1ccc(S(=O)(=O)c2nnn3c2[nH]c(=O)c2ccc(N4CCC45CN(C)C5)cc23)c(C)c1` [Compound 11, 3-(2,4-dimethylbenzenesulfonyl)-8-{6-methyl-1,6-diazaspiro[3.3]heptan-1-yl}-4H,5H-[1,2,3]triazolo[1,5-a]quinazolin-5-one] was tested. Which “Ratio IC50 (in presence of HSA)/IC50” value did it give?
A: The value was “+++ (ratio ≤ 25)”.

Q: What about the pIC50 [2] of the same compound?
A: The pIC50 was 3.97 to 4.67.

Q: And the pIC50 [3]?
A: Its pIC50 is 4.97 to 5.67.

Q: For `Cc1ccc(S(=O)(=O)c2nnn3c2[nH]c(=O)c2ccc(N4CC5(CCN5C)C4)cc23)c(C)c1` [Compound 12, 3-(2,4-dimethylbenzenesulfonyl)-8-{1-methyl-1,6-diazaspiro[3.3]heptan-6-yl}-4H,5H-[1,2,3]triazolo[1,5-a]quinazolin-5-one], which “Ratio IC50 (in presence of HSA)/IC50” value is on record?
A: Its value is “+++ (ratio ≤ 25)”.

Q: And the pIC50 [2]?
A: Its pIC50 is 3.97 to 4.67.

Q: What about the pIC50 [3] of the same compound?
A: The pIC50 was greater than 5.67.
